In one assay the test system is ruminal microbial urease. The experiment in a line: Kinetic characterization of urease inhibition (nonlinear Michaelis-Menten fitting). In kind it is biochemical, rumen bacteria of Chinese Holstein dairy cows. The protocol:
Rumen fluid samples were collected from five Chinese Holstein dairy cows with permanent rumen fistula 3 h after feeding a total mixed ration in the morning. All the operations were conducted in accordance with the protocol approved by the Animal Care and Use Committee for Livestock of the Institute of Animal Sciences, Chinese Academy of Agricultural Sciences (Permit Number: IAS2019-14, Permit Date: 22-03-2019). All rumen fluid samples were filtered by a six layer sterilized medical gauze and mixed in a sterilized beaker before being evenly distributed into different 50 mL tubes and stored in liquid nitrogen. The deforested samples were centrifuged at 12,000× g for 10 min at 4 °C, then the supernatant was removed from the tube. The remaining sediments were resuspended in a HEPES buffer solution (pH 7.5, 50 mM) and then centrifuged at 12,000× g for 10 min at 4 °C. The supernatant was discarded and the remaining rumen bacteria were collected and stored at −80 °C for later urease extraction. All the sample handing processes were conducted on an ice bath. Before each urease inhibition assay, 2 g of rumen bacteria were taken from the fridge and resuspended in a HEPES buffer followed by lysis through a high-pressure cell press JG-1A (Ningbo Scientz Biotechnology Co., Ltd., Ningbo, China). The hollow cylindrical sample loading element was placed in −80 °C for 10 min before the high-pressure lysis at 22,000 psi. […] The kinetic of the compound was determined by varying the concentration of urea in the presence of different compound 6238-0047 concentrations of 0.25 and 0.5 mM in the assay mixture. […] Maximal initial velocities were determined from the initial linear portion of the absorbance up to 10 min after the addition of the enzyme. Kinetic parameters Km and Vmax were calculated by the nonlinear fitting of different substrate concentrations against the velocities of the reaction at each different concentrations of compound 6238-0047 using the GraphPad Prism software as mentioned before.

The test system of another assay is ruminal microbiota. Briefly: Ruminal microbial fermentation in vitro (six generations): urea and NH3-N. In kind it is cell-based, rumen fluid of Chinese Holstein dairy cows. The settings on record: 100 μM compound, 24 h, p < 0.01. The protocol:
Seven solutions were prepared for the anaerobic media as solution A (3 g/L K2HPO4), solution B (0.6 g/L CaCl2, 3 g/L K2HPO4, 6 g/L NaCl, 0.6 g/L MgSO4·7H2O), solution C (6 g/L K2HPO4), solution D (1.6 g/L CaCl2·2H2O, 6 g/L K2HPO4, 12 g/L NaCl, 2.5 g/L MgSO4·7H2O), trace element solution (300 mg/L H3BO3, 100 mg/L ZnSO4·7H2O, 30 mg/L MnCl2·4H2O, 20 mg/L CoCl2·6H2O, 30 mg/L Na2MoO4·2H2O, 10 mg/L Na2SeO3, 20 mg/L NiCl2, 10 mg/L CuCl2·2H2O, 150 mg/L FeCl2·4H2O), volatile fatty acid (VFA) mixed solution (17 mL acetic acid, 6 mL propionic acid, 4 mL butyric acid, 1 mL n-valeric acid, 1 mL isovaleric acid, and 1 mL isobutyric acid), and hemin solution, prepared by diluting 50 mg of Haemon in NaOH (1 N solution) and made up to 100 mL with distilled water. Each liter of anaerobic media contained 30 mL of autoclaved rumen fluid supernatant, 0.5 g of glucose, 0.5 g of soluble starch, 0.5 g of cellobiose, 0.5 g of maltose, 0.5 g of […], 0.5 g of tripticase, 0.5 g of yeast extract, 8 g of NaHCO3, 0.1 mL of trace elements solution, 15 mL solution A, 15 mL solution B, 0.5 g of cysteine hydrochloride, 10 mL of hemin solution, 3.1 mL of VFA mixed solution, and 1 mg resazurin. The anaerobic urea solution was prepared using an anaerobic glove box, by dissolving 2.5 g of urea in a 50 mL anaerobic diluent. This diluent consisted of 3.8 mL of salt solution C, 3.8 mL of salt solution D, 5 mL of 8% sodium Na2CO3, 1 mL of 0.1% resazurin, 0.5 g of cysteine hydrochloride dissolved in distilled water and made up to 1000 mL and distributed into 50 mL anaerobic bottles. All the anaerobic bottles were sterilized by autoclave. Prior to the inoculation, fresh frozen rumen fluid samples, pretreated as described previously, were removed from the freezer, thawed, homogenized, and used immediately. […] Chromatographic gradients were referenced to the paper.

Molecules are shown by their SMILES. “Also recorded” adds a separate entry of the source.

Take `COc1ccc(-c2ccc(CCC(=O)O)n2NC(N)=O)cc1` [6238-0047, 3-[1-[(aminocarbonyl)amino]-5-(4-methoxyphenyl)-1H-pyrrol-2-yl] propanoic acid]: the Vmax in the assay on ruminal microbial urease (0.25 mM of compound) was determined as 12.58 µM/min; with ruminal microbial urease (0.5 mM of compound), 9.67 µM/min. Moreover, the Inhibition mode result with ruminal microbial urease (from change of Km, Vmax and Vmax/Km) is recorded as “mixed type inhibitor”. In addition, the “Amount of urea degradation vs control group” value with ruminal microbiota (16.65 mM urea) is on record as “significantly lowered the amount of urea degradation”. Further, the “NH3-N concentration / production vs control group” value with ruminal microbiota is given as “significantly lower than the control group; also recorded: consistently lower than the control group”.

As a reminder, the Vmax is the rate approached at saturating substrate.
